For 24 molecules, EC50 results are on record in patent US20210169892A1, “MODULATORS OF THE INTEGRATED STRESS PATHWAY” (Calico Life Sciences LLC, priority 2017, published 2021).

The test system of this assay is HEK293T cells carrying the ATF4 luciferase reporter. The assay can be described thus: ATF4-Luc assay (in vitro model of vanishing white matter disease). It is filed as cell-based. Conditions: Homo sapiens, HEK-293T; HEK293T cells with ATF4 luciferase reporter, 1 μg/mL tunicamycin, 7 hours, One Glo luminescence. An outline of the steps: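 Reporter cells were stably generated by retroviral transduction and puromycin selection, then seeded at 30,000 cells/well. Next day, cells received 1 μg/mL tunicamycin with 200 nM test compound for 7 h, and luciferase luminescence was read with a one-step reagent. Values reported as EC50.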

SMILES strings stand for the structures. Some results are limits rather than exact numbers.

By EC50 is commonly meant the concentration needed to bring the measured effect to its halfway point.

Take `O=C(COc1ccc(Cl)c(F)c1)NC12CC(NC(=O)C3CN(C(=O)C(F)(F)C(F)F)c4cc(Cl)ccc4O3)(C1)C2` (stereo not drawn) [Compound 161, 6-chloro-N-{3-[2-(4-chloro-3-fluorophenoxy)acetamido]bicyclo[1.1.1]pentan-1-yl}-4-(2,2,3,3-tetrafluoropropanoyl)-3,4-dihydro-2H-1,4-benzoxazine-2-carboxamide]: the EC50 is below 10 nM.

Take `CSCCC(=O)N1CC(C(=O)NC23CC(NC(=O)COc4ccc(Cl)c(F)c4)(C2)C3)Oc2ccc(Cl)cc21` (stereo not drawn) [Compound 162, 6-chloro-N-{3-[2-(4-chloro-3-fluorophenoxy)acetamido]bicyclo[1.1.1]pentan-1-yl}-4-[3-(methylsulfanyl)propanoyl]-3,4-dihydro-2H-1,4-benzoxazine-2-carboxamide]: the EC50 was in the range of 50 to 250 nM.

In the case of `Cc1cc(S(=O)(=O)N2CC(C(=O)NC34CC(NC(=O)COc5ccc(Cl)c(F)c5)(C3)C4)Oc3ccc(Cl)cc32)c(C(F)(F)F)o1` (stereo not drawn) [Compound 163, 6-chloro-N-{3-[2-(4-chloro-3-fluorophenoxy)acetamido]bicyclo[1.1.1]pentan-1-yl}-4-[5-methyl-2-(trifluoromethyl)furan-3-sulfonyl]-3,4-dihydro-2H-1,4-benzoxazine-2-carboxamide], the EC50 is above 2000 nM.

As for `COc1ccc(S(=O)(=O)N2CC(C(=O)NC34CC(NC(=O)COc5ccc(Cl)c(F)c5)(C3)C4)Oc3ccc(Cl)cc32)cc1` (stereo not drawn) [Compound 164, 6-chloro-N-{3-[2-(4-chloro-3-fluorophenoxy)acetamido]bicyclo[1.1.1]pentan-1-yl}-4-(4-methoxybenzene-1-sulfonyl)-3,4-dihydro-2H-1,4-benzoxazine-2-carboxamide], the EC50 is above 2000 nM.

With `Cn1cnc(S(=O)(=O)N2CC(C(=O)NC34CC(NC(=O)COc5ccc(Cl)c(F)c5)(C3)C4)Oc3ccc(Cl)cc32)c1` (stereo not drawn) [Compound 165, 6-chloro-N-{3-[2-(4-chloro-3-fluorophenoxy)acetamido]bicyclo[1.1.1]pentan-1-yl}-4-(1-methyl-1H-imidazole-4-sulfonyl)-3,4-dihydro-2H-1,4-benzoxazine-2-carboxamide], the EC50 was 10 to 50 nM.

Take `O=C(COc1ccc(Cl)c(F)c1)NC12CC(NC(=O)C3CN(S(=O)(=O)c4ccc(F)cc4)c4cc(Cl)ccc4O3)(C1)C2` (stereo not drawn) [Compound 166, 6-chloro-N-{3-[2-(4-chloro-3-fluorophenoxy)acetamido]bicyclo[1.1.1]pentan-1-yl}-4-(4-fluorobenzene-1-sulfonyl)-3,4-dihydro-2H-1,4-benzoxazine-2-carboxamide]: the EC50 was in the range of 500 to 2000 nM.

For `O=C(COc1ccc(Cl)c(F)c1)NC12CC(NC(=O)C3CN(C(=O)CCCC(F)(F)F)c4cc(Cl)ccc4O3)(C1)C2` (stereo not drawn) [Compound 167, 6-chloro-N-{3-[2-(4-chloro-3-fluorophenoxy)acetamido]bicyclo[1.1.1]pentan-1-yl}-4-(5,5,5-trifluoropentanoyl)-3,4-dihydro-2H-1,4-benzoxazine-2-carboxamide], the EC50 lay in the range of 250 to 500 nM.

As to `CS(=O)(=O)N1CC(C(=O)NC23CC(NC(=O)COc4ccc(Cl)c(F)c4)(C2)C3)Oc2ccc(Cl)cc21` (stereo not drawn) [Compound 168, 6-chloro-N-{3-[2-(4-chloro-3-fluorophenoxy)acetamido]bicyclo[1.1.1]pentan-1-yl}-4-(methanesulfonyl)-3,4-dihydro-2H-1,4-benzoxazine-2-carboxamide], the EC50 was 50 to 250 nM.

With `O=C(COc1ccc(Cl)c(F)c1)NC12CC(NC(=O)C3CN(C(=O)c4ccncc4)c4cc(Cl)ccc4O3)(C1)C2` (stereo not drawn) [Compound 169, 6-chloro-N-{3-[2-(4-chloro-3-fluorophenoxy)acetamido]bicyclo[1.1.1]pentan-1-yl}-4-(pyridine-4-carbonyl)-3,4-dihydro-2H-1,4-benzoxazine-2-carboxamide], the 50% effective concentration (EC50) lay in the range of 250 to 500 nM.

Consider `O=C(O)CCN1CC(C(=O)NC23CC(NC(=O)COc4ccc(Cl)c(F)c4)(C2)C3)Oc2ccc(Cl)cc21` (stereo not drawn) [Compound 170, 3-[6-chloro-2-({3-[2-(4-chloro-3-fluorophenoxy)acetamido]bicyclo[1.1.1]pentan-1-yl}carbamoyl)-2,3-dihydro-4H-1,4-benzoxazin-4-yl]propanoic acid], for which the EC50 lay within 250 to 500 nM.

Turning to `CSN1CC(C(=O)NC23CC(NC(=O)COc4ccc(Cl)c(F)c4)(C2)C3)Oc2ccc(Cl)cc21` (stereo not drawn) [Compound 172, 6-chloro-N-{3-[2-(4-chloro-3-fluorophenoxy)acetamido]bicyclo[1.1.1]pentan-1-yl}-4-(methylsulfanyl)-3,4-dihydro-2H-1,4-benzoxazine-2-carboxamide], the EC50 is below 10 nM.

As for `Cc1nn(C)cc1S(=O)(=O)N1CC(C(=O)NC23CC(NC(=O)COc4ccc(Cl)c(F)c4)(C2)C3)Oc2ccc(Cl)cc21` (stereo not drawn) [Compound 173, 6-chloro-N-{3-[2-(4-chloro-3-fluorophenoxy)acetamido]bicyclo[1.1.1]pentan-1-yl}-4-(1,3-dimethyl-1H-pyrazole-4-sulfonyl)-3,4-dihydro-2H-1,4-benzoxazine-2-carboxamide], the EC50 fell in the range of 500 to 2000 nM.

Take `NS(=O)(=O)c1ccc(S(=O)(=O)N2CC(C(=O)NC34CC(NC(=O)COc5ccc(Cl)c(F)c5)(C3)C4)Oc3ccc(Cl)cc32)cc1` (stereo not drawn) [Compound 174, 6-chloro-N-{3-[2-(4-chloro-3-fluorophenoxy)acetamido]bicyclo[1.1.1]pentan-1-yl}-4-(4-sulfamoylbenzene-1-sulfonyl)-3,4-dihydro-2H-1,4-benzoxazine-2-carboxamide]: the EC50 was 50 to 250 nM.

Turning to `O=C(COc1ccc(Cl)c(F)c1)NC12CC(NC(=O)C3CN(C(=O)[C@@H]4C[C@@H]4F)c4cc(Cl)ccc4O3)(C1)C2` (stereo partly drawn) [Compound 175, 6-chloro-N-{3-[2-(4-chloro-3-fluorophenoxy)acetamido]bicyclo[1.1.1]pentan-1-yl}-4-[(1S,2S)-2-fluorocyclopropane-1-carbonyl]-3,4-dihydro-2H-1,4-benzoxazine-2-carboxamide], the 50% effective concentration (EC50) lay within 250 to 500 nM.

Regarding `O=C(COc1ccc(Cl)c(F)c1)NC12CC(NC(=O)C3CN(C(=O)C4CC4(F)F)c4cc(Cl)ccc4O3)(C1)C2` (stereo not drawn) [Compound 176, 6-chloro-N-{3-[2-(4-chloro-3-fluorophenoxy)acetamido]bicyclo[1.1.1]pentan-1-yl}-4-(2,2-difluorocyclopropane-1-carbonyl)-3,4-dihydro-2H-1,4-benzoxazine-2-carboxamide], the EC50 was 250 to 500 nM.

As to `O=C(COc1ccc(Cl)c(F)c1)NC12CC(NC(=O)C3CN(C(=O)C4(C(F)(F)F)CC4)c4cc(Cl)ccc4O3)(C1)C2` (stereo not drawn) [Compound 177, 6-chloro-N-{3-[2-(4-chloro-3-fluorophenoxy)acetamido]bicyclo[1.1.1]pentan-1-yl}-4-[1-(trifluoromethyl)cyclopropane-1-carbonyl]-3,4-dihydro-2H-1,4-benzoxazine-2-carboxamide], the EC50 was below 10 nM.

For the molecule `O=C(COc1ccc(Cl)c(F)c1)NC12CC(NC(=O)C3CN(C(=O)C(F)(F)C(F)(F)F)c4cc(Cl)ccc4O3)(C1)C2` (stereo not drawn) [Compound 178, 6-chloro-N-{3-[2-(4-chloro-3-fluorophenoxy)acetamido]bicyclo[1.1.1]pentan-1-yl}-4-(2,2,3,3,3-pentafluoropropanoyl)-3,4-dihydro-2H-1,4-benzoxazine-2-carboxamide], the EC50 is below 10 nM.

In the case of `CC1(C(=O)N2CC(C(=O)NC34CC(NC(=O)COc5ccc(Cl)c(F)c5)(C3)C4)Oc3ccc(Cl)cc32)CC1(F)F` (stereo not drawn) [Compound 179, 6-chloro-N-{3-[2-(4-chloro-3-fluorophenoxy)acetamido]bicyclo[1.1.1]pentan-1-yl}-4-(2,2-difluoro-1-methylcyclopropane-1-carbonyl)-3,4-dihydro-2H-1,4-benzoxazine-2-carboxamide], the EC50 lay in the range of 500 to 2000 nM.

`CS(=O)(=O)CCN1CC(C(=O)NC23CC(NC(=O)COc4ccc(Cl)c(F)c4)(C2)C3)Oc2ccc(Cl)cc21` (stereo not drawn) [Compound 180, 6-chloro-N-{3-[2-(4-chloro-3-fluorophenoxy)acetamido]bicyclo[1.1.1]pentan-1-yl}-4-[2-(methanesulfonyl)ethyl]-3,4-dihydro-2H-1,4-benzoxazine-2-carboxamide]: the EC50 is 10 to 50 nM.

On to `COCCC(=O)N1CC(C(=O)NC23CC(NC(=O)COc4ccc(Cl)c(F)c4)(C2)C3)Oc2ccc(Cl)cc21` (stereo not drawn) [Compound 181, 6-chloro-N-{3-[2-(4-chloro-3-fluorophenoxy)acetamido]bicyclo[1.1.1]pentan-1-yl}-4-(3-methoxypropanoyl)-3,4-dihydro-2H-1,4-benzoxazine-2-carboxamide], for which the EC50 fell in the range of 10 to 50 nM.

As to `O=C(COc1ccc(Cl)c(F)c1)NC12CC(NC(=O)C3CN(C(=O)CC(F)(F)F)c4cc(Cl)ccc4O3)(C1)C2` (stereo not drawn) [Compound 182, 6-chloro-N-{3-[2-(4-chloro-3-fluorophenoxy)acetamido]bicyclo[1.1.1]pentan-1-yl}-4-(3,3,3-trifluoropropanoyl)-3,4-dihydro-2H-1,4-benzoxazine-2-carboxamide], the EC50 lay within 50 to 250 nM.

Turning to `O=C(COc1ccc(Cl)c(F)c1)NC12CC(NC(=O)C3CN(S(=O)(=O)CC(F)(F)F)c4cc(Cl)ccc4O3)(C1)C2` (stereo not drawn) [Compound 183, 6-chloro-N-{3-[2-(4-chloro-3-fluorophenoxy)acetamido]bicyclo[1.1.1]pentan-1-yl}-4-(2,2,2-trifluoroethanesulfonyl)-3,4-dihydro-2H-1,4-benzoxazine-2-carboxamide], the EC50 lay within 10 to 50 nM.

Turning to `CC(C)(C)OC(=O)CN1CC(C(=O)NC23CCC(NC(=O)COc4ccc(Cl)c(F)c4)(CC2)[C@@H](O)C3)Oc2ccc(Cl)cc21` (stereo partly drawn) [Compound 185, tert-butyl [6-chloro-2-({(3S)-4-[2-(4-chloro-3-fluorophenoxy)acetamido]-3-hydroxybicyclo[2.2.2]octan-1-yl}carbamoyl)-2,3-dihydro-4H-1,4-benzoxazin-4-yl]acetate], the EC50 lay within 50 to 250 nM.

`O=C(COc1ccc(Cl)c(F)c1)NC12CC(NC(=O)C3CC(=O)c4cc(Cl)ccc4O3)(C1)C2` (stereo not drawn) [Compound 186, 6-chloro-N-{3-[2-(4-chloro-3-fluorophenoxy)acetamido]bicyclo[1.1.1]pentan-1-yl}-4-oxo-3,4-dihydro-2H-1-benzopyran-2-carboxamide]: the EC50 was below 10 nM.
